Test results taken from patent publication US11434248B2, “PDE9 inhibitor and use thereof” (Nanjing TransThera Biosciences Co. Ltd., priority 2017, dated 2022).
Where two headings read alike, the source gives them in different places.

Legend:
[1] = Stability in human liver microsome
[2] = Rat pharmacokinetic evaluation; type: in vivo, SD male rats; details: SD rat; for tz1/2 po (terminal elimination half-life): intragastric 5.0 mg/kg; for tz1/2 iv (terminal elimination half-life): intravenous bolus 1 mg/kg
Description: Experimental Example 4: Rat Pharmacokinetic Evaluation of the Compounds of the Invention
Aim: The in vivo pharmacokinetic parameters of the compounds in SD male rats (purchased from Beijing Vital River Animal Technology Co., Ltd.) were evaluated and bioavailability of the compounds was examined.
Animal Administration and Sample Collection:
The solution of compounds 65, 90, 107, 158 was intragastrically administered to SD rat at a dose of 5.0 mg/kg.
The experimental compound 76 was dissolved in 30% DMF+30% PEG400+40% saline to prepare a solution. The solution of compound 76 was intragastrically administered to SD rat at a dose of 5.0 mg/kg.
The experimental compound 76 was dissolved in 30% DMF+30% PEG400+40% saline to prepare a solution.
The experimental compounds 84 and 96 were dissolved in 5% DMSO+10% PEG400+85% (28% HP-β-CD) saline to prepare a solution. The solution of compounds 84 and 96 was intragastrically administered to SD rat at a dose of 5.0 mg/kg.
The experimental compounds 84 and 96 were dissolved in 5% DMSO+10% PEG400+85% (28% HP-β-CD) saline to prepare a solution.
The animals were fixed. The tail was heated with a water bath at 10 min before each time point. About 100 μL of blood from tail vein was collected, and then placed in an anti-coagulation tube containing EDTA-K2 after collection. Blood samples were centrifuged at 8000 rpm at 4° C. for 6 min to obtain plasma samples.
The concentration of test sample was output using Analyst 1.6.1 from AB SCIEX.

[3] = human
[4] = Canine pharmacokinetic evaluation; details: Beagle dogs, n = 3; for F %: dose iv/po 1/2 mg/kg; for AUCinf po / tz1/2 po (terminal elimination half-life): intragastric 2.0 mg/kg; for AUCinf iv / Cl_obs iv (clearance rate) / tz1/2 iv (terminal elimination half-life): intravenous bolus 1 mg/kg
human PDE9 = human PDE9 (Homo sapiens (Human), UniProt O76083); details: background statement on conventional PDE inhibitors; cited from earlier work
[5] = human liver microsome 0.5 mg protein/mL, compound 1 μM, 37° C.

human PDE9, sequence (O76083 whole entry): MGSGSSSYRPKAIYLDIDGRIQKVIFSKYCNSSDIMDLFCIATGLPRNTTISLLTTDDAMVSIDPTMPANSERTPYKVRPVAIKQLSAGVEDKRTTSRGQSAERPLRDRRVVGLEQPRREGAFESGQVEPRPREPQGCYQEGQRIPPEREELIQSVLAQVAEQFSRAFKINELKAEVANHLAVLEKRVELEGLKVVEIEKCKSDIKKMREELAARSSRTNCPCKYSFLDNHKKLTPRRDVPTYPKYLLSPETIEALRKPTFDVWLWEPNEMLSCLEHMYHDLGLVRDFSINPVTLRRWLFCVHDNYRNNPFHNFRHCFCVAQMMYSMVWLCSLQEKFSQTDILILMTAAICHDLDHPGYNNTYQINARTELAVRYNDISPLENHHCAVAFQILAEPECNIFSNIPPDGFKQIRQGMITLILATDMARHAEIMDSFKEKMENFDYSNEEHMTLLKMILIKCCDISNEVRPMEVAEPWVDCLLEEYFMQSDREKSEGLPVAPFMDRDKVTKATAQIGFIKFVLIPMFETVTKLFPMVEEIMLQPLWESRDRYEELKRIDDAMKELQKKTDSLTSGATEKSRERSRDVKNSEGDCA

Q: For `N#Cc1c(N2CC[C@@H](n3cccn3)C2)c2ccncc2[nH]c1=O` [Compound 19, (R)-4-(3-(1H-pyrazol-1-yl)pyrrolidin-1-yl)-2-oxo-1,2-dihydro-1,7-naphthyridin-3-carbonitrile], which k [1, 5] is on record?
A: 0.191 min⁻¹

Q: Which results are given for `N#Cc1c(N2CCC3(CC2)CC3)c2ccncc2[nH]c1=O` [Compound 25, 2-oxo-4-(6-azaspiro[2.5]octane-6-yl)-1,2-dihydro-1,7-naphthyridin-3-carbonitrile]?
A: tz1/2 po (terminal elimination half-life) [2]: 1.40 h; tz1/2 iv (terminal elimination half-life) [2]: 0.51 h; k [3]: 0.0022 min⁻¹; F % [4]: 99.1%; AUCinf po [4]: 4449 ng·h/mL; tz1/2 po (terminal elimination half-life) [4]: 9.45 h; AUCinf iv [4]: 2244 ng·h/mL; Cl_obs iv (clearance rate) [4]: 7.83 mL/min/kg; tz1/2 iv (terminal elimination half-life) [4]: 10.4 h

Q: With `N#Cc1c(N2CCC3(CC2)CC3)c2cc(C(O)CO)ncc2[nH]c1=O` (centres unmarked) [Compound 32, 6-(1,2-dihydroxyethyl)-2-oxo-4-(6-azaspiro[2.5]octane-6-yl)-1,2-dihydro-1,7-naphthyridin-3-carbonitrile] as the compound, how does the T½ [1, 5] read?
A: →∞

Q: What about the k [1, 5] of the same compound?
A: -0.3760 min⁻¹

Q: Which k [3] does the source give for `N#Cc1c(N2CCC3(CCC3)CC2)c2cc(N3CC(O)C3)ncc2[nH]c1=O` [Compound 51, 6-(3-hydroxyazetidin-1-yl)-2-oxo-4-(7-azaspiro[3.5]nonane-7-yl)-1,2-dihydro-1,7-naphthyridin-3-carbonitrile] here?
A: 0.9418 min⁻¹

Q: For `N#Cc1c(N2CCC3(CCC3)CC2)c2cc(N3CC(N)C3)ncc2[nH]c1=O` [Compound 53, 6-(3-aminoazetidin-1-yl)-2-oxo-4-(7-azaspiro[3.5]nonane-7-yl)-1,2-dihydro-1,7-naphthyridin-3-carbonitrile], which k [3] is on record?
A: 0.4821 min⁻¹

Q: Which “tz1/2 po (terminal elimination half-life)” value (from here on “tz1/2 po”) [2] does the source give for `Cc1cc2c(N3CCC4(CCC4)CC3)c(C#N)c(=O)[nH]c2cn1` [Compound 65, 6-methyl-2-oxo-4-(7-azaspiro[3.5]nonane-7-yl)-1,2-dihydro-1,7-naphthyridin-3-carbonitrile] here?
A: 2.25 h

Q: What about the “tz1/2 iv (terminal elimination half-life)” value (shortened to “tz1/2 iv”) [2] of the same compound?
A: 1.47 h

Q: What about the F % [4] of the same compound?
A: 25.5%

Q: What about the AUCinf po [4] of the same compound?
A: 543 ng·h/mL

Q: What about the “tz1/2 po” value [4] of the same compound?
A: 0.47 h

Q: What about the AUCinf iv [4] of the same compound?
A: 1065 ng·h/mL

Q: And the “Cl_obs iv (clearance rate)” value [4]?
A: 15.7 mL/min/kg

Q: And the “tz1/2 iv” value [4]?
A: 0.49 h

Q: For `COc1cc2c(N3CCC4(CCC4)CC3)c(C#N)c(=O)[nH]c2cn1` [Compound 66, 6-methoxy-2-oxo-4-(7-azaspiro[3.5]nonane-7-yl)-1,2-dihydro-1,7-naphthyridin-3-carbonitrile], which T½ [1, 5] is on record?
A: →^

Q: And the k [1, 5]?
A: -0.515 min⁻¹

Q: With `CCc1cc2c(N3CCC4(CC3)CC4)c(C#N)c(=O)[nH]c2cn1` [Compound 76, 6-ethyl-2-oxo-4-(6-azaspiro[2.5]octane-6-yl)-1,2-dihydro-1,7-naphthyridin-3-carbonitrile] as the compound, how does the “tz1/2 po” value [2] read?
A: 9.60 h

Q: What about the “tz1/2 iv” value [2] of the same compound?
A: 0.89 h

Q: And the k [3]?
A: 0.0015 min⁻¹

Q: With `N#Cc1c(N2CCC3(CC2)CC3)c2ncccc2[nH]c1=O` [Compound 80, 2-oxo-4-(6-azaspiro[2.5]octane-6-yl)-1,2-dihydro-1,5-naphthyridin-3-carbonitrile] as the compound, how does the k [3] read?
A: 0.9877 min⁻¹

Q: With `COC1(C)CCN(c2c(C#N)c(=O)[nH]c3cnccc23)CC1` [Compound 81, 4-(4-methoxy-4-methylpiperidin-1-yl)-2-oxo-1,2-dihydro-1,7-naphthyridin-3-carbonitrile] as the compound, how does the k [1, 5] read?
A: 0.0012 min⁻¹

Q: For `CC(C)(O)c1cc2c(N3CCC4(CCC4)CC3)c(C#N)c(=O)[nH]c2cn1` [Compound 82, 6-(2-hydroxypropan-2-yl)-2-oxo-4-(7-azaspiro[3.5]nonane-7-yl)-1,2-dihydro-1,7-naphthyridin-3-carbonitrile], which k [3] is on record?
A: 0.9760 min⁻¹

Q: Which T½ [1, 5] does the source give for `N#Cc1c(N2CCC3(CC2)CC3)c2cc(C(=O)O)ncc2[nH]c1=O` [Compound 83, 3-cyano-2-oxo-4-(6-azaspiro[2.5]octane-6-yl)-1,2-dihydro-1,7-naphthyridin-6-carboxylic acid] here?
A: →∞

Q: What about the k [1, 5] of the same compound?
A: 0.5421 min⁻¹

Q: Which “tz1/2 po” value [2] does the source give for `CC(C)(O)c1cc2c(N3CCC4(CC3)CC4)c(C#N)c(=O)[nH]c2cn1` [Compound 84, 6-(2-hydroxypropan-2-yl)-2-oxo-4-(6-azaspiro[2.5]octane-6-yl)-1,2-dihydro-1,7-naphthyridin-3-carbonitrile] here?
A: 3.24 h

Q: And the “tz1/2 iv” value [2]?
A: 1.89 h

Q: With `N#Cc1c(N2CCC3(CC2)CC3)c2cc(C(O)C3CC3)ncc2[nH]c1=O` (centres unmarked) [Compound 90, 6-(cyclopropyl (hydroxy)methyl)-2-oxo-4-(6-azaspiro[2.5]octane-6-yl)-1,2-dihydro-1,7-naphthyridin-3-carbonitrile] as the compound, how does the “tz1/2 po” value [2] read?
A: 4.49 h

Q: What about the “tz1/2 iv” value [2] of the same compound?
A: 1.48 h

Q: What about the k [3] of the same compound?
A: 0.0037 min⁻¹

Q: Which “tz1/2 iv” value [2] does the source give for `CNC(=O)c1cc2c(N3CCC4(CC3)CC4)c(C#N)c(=O)[nH]c2cn1` [Compound 96, 3-cyano-N-methyl-2-oxo-4-(6-azaspiro[2.5]octane-6-yl)-1,2-dihydro-1,7-naphthyridin-6-formamide] here?
A: 0.30 h⁻¹

Q: For `CCc1cc2c(N3CCC(C)(OC)CC3)c(C#N)c(=O)[nH]c2cn1` [Compound 107, 6-ethyl-4-(4-methoxy-4-methylpiperidin-1-yl)-2-oxo-1,2-dihydro-1,7-naphthyridin-3-carbonitrile], which k [1, 5] is on record?
A: 0.0023 min⁻¹

Q: Which k [1, 5] does the source give for `COC1(C)CCN(c2c(C#N)c(=O)[nH]c3cnc(C(C)(C)O)cc23)CC1` [Compound 109, 6-(2-hydroxypropan-2-yl)-4-(4-methoxy-4-methylpiperidin-1-yl)-2-oxo-1,2-dihydro-1,7-naphthyridine-3-carbonitrile] here?
A: 0.4444 min⁻¹

Q: Which k [1, 5] does the source give for `COCCOc1cc2c(N3CCC(C)(OC)CC3)c(C#N)c(=O)[nH]c2cn1` [Compound 145, 4-(4-methoxy-4-methylpiperidin-1-yl)-6-(2-methoxyethoxy)-2-oxo-1,2-dihydro-1,7-naphthyridin-3-carbonitrile] here?
A: 0.0019 min⁻¹

Q: For `N#Cc1c(N2CCCCCC2)c2ccccc2[nH]c1=O` [Compound I-8, reference compound], which CLint [1, 5] is on record?
A: 0.1244 mL · min^−1 · mg^−1 proteins

Q: And the k [1, 5]?
A: 0.727 min⁻¹

Q: What about the “Original drug residual % at 60 min” value ([1]; human liver microsome 0.5 mg protein/mL, compound 1 μM, β-NADPH 1 mM, 37° C., 60 min) of the same compound?
A: 5.19%

Q: And the half-life at 1 μM ([1]; human, liver microsomes)?
A: 0.186 h

Q: For `CC(C)Cn1c(=O)n(C)c(=O)c2[nH]cnc21` [IBMX], which “inhibition activity on PDE9” value (human PDE9) is on record?
A: no or very low inhibition activity

Q: Which “inhibition activity on PDE9” value (human PDE9) does the source give for `CC(=O)Nc1ccc(-c2c[nH]c(=O)cn2)cc1` [SKF94120] here?
A: no or very low inhibition activity

Q: With `OCCN(CCO)c1nc(N2CCCCC2)c2nc(N(CCO)CCO)nc(N3CCCCC3)c2n1` [dipyridamole] as the compound, how does the “inhibition activity on PDE9” value (human PDE9) read?
A: no or very low inhibition activity

Q: With `COc1ccc(C2CNC(=O)C2)cc1OC1CCCC1` (centres unmarked) [rolipram] as the compound, how does the “inhibition activity on PDE9” value (human PDE9) read?
A: no or very low inhibition activity

Q: With `CCOC(=O)C1=C[C@]2(CC)CCCN3CCc4c(n1c1ccccc41)[C@@H]32` [vinpocetine] as the compound, how does the “inhibition activity on PDE9” value (human PDE9) read?
A: no or very low inhibition activity
